Where no end group is shown, it is not given here.
Assays:
[1] = test system: S. aureus (29): reference (5) and clinical (24) strains; conditions: for MIC range among strains: range over all S. aureus strains and the salts of the peptide; for Mean value of MIC: mean over 29 S. aureus strains (Table 5); for Mean MIC values: mean over 29 S. aureus strains, as repeated in Table 6
Protocol: Microbiological assays were performed using reference and clinical strains of Staphylococcus aureus. Minimal inhibitory concentrations (MIC) were determined by broth microdilution method on 96-well polystyrene plates according to Clinical and Laboratory Standards Institute (CLSI) recommendations [Clinical and Laboratory Standards Institute (CLSI) [2012]]. […] All plates were incubated for 18 h at 37 °C. […] Reference strains of S. aureus: ATCC 6538, ATCC 6538/P, ATCC 9144, ATCC 12598, and ATCC 25923 were obtained from the Polish Collection of Microorganisms (PCM, Polish Academy of Sciences, Wrocław), whereas 24 clinical strains were isolated from the patients of the Clinic of Dermatology, Venereology and Allergology (Medical University of Gdańsk). Nine strains were characterized as methicillin-resistant (MRSA). Preliminary identification and detection was conducted on the ChromID MRSA/ChromID S. aureus biplate (bioMérieux) for the simultaneous detection of S. aureus and methicillin-resistant S. aureus (MRSA). All experiments were conducted at least in triplicate.
To asses an overall activity of peptides, the mean MIC values were calculated.

S. aureus ATCC 12598 = assay type: cell-based, Staphylococcus aureus; conditions: ATCC 12598, reference strain; broth microdilution, 0.5 × 10^5 CFU/mL, 18 h, 37 °C, at least triplicate
Protocol: (§1) Microbiological assays were performed using reference and clinical strains of Staphylococcus aureus. Minimal inhibitory concentrations (MIC) were determined by broth microdilution method on 96-well polystyrene plates according to Clinical and Laboratory Standards Institute (CLSI) recommendations [Clinical and Laboratory Standards Institute (CLSI) [2012]]. For this purpose, the initial inoculums of 0.5 × 10^5 CFU/mL of bacteria were exposed to a range of concentrations of the peptides (0.5–256 µg/mL). All plates were incubated for 18 h at 37 °C. MIC was taken as the lowest concentration of the compound at which the growth of bacteria was not observed. Reference strains of S. aureus: ATCC 6538, ATCC 6538/P, ATCC 9144, ATCC 12598, and ATCC 25923 were obtained from the Polish Collection of Microorganisms (PCM, Polish Academy of Sciences, Wrocław), whereas 24 clinical strains were isolated from the patients of the Clinic of Dermatology, Venereology and Allergology (Medical University of Gdańsk). Nine strains were characterized as methicillin-resistant (MRSA). Preliminary identification and detection was conducted on the ChromID MRSA/ChromID S. aureus biplate (bioMérieux) for the simultaneous detection of S. aureus and methicillin-resistant S. aureus (MRSA). All experiments were conducted at least in triplicate.

S. aureus 015N (MRSA) = assay type: cell-based, Staphylococcus aureus; conditions: clinical strain, broth microdilution, 0.5 × 10^5 CFU/mL, 18 h, 37 °C, at least triplicate
Protocol: as §1

S. aureus ATCC 6538 = assay type: cell-based, Staphylococcus aureus; conditions: ATCC 6538, reference strain; broth microdilution, 0.5 × 10^5 CFU/mL, 18 h, 37 °C, at least triplicate
Protocol: as §1

S. aureus 024N (MRSA) = assay type: cell-based, Staphylococcus aureus; conditions: clinical strain, broth microdilution, 0.5 × 10^5 CFU/mL, 18 h, 37 °C, at least triplicate
Protocol: as §1

S. aureus 004N (MRSA) = assay type: cell-based, Staphylococcus aureus; conditions: clinical strain, broth microdilution, 0.5 × 10^5 CFU/mL, 18 h, 37 °C, at least triplicate
Protocol: as §1

S. aureus K19N = assay type: cell-based, Staphylococcus aureus; conditions: clinical strain, broth microdilution, 0.5 × 10^5 CFU/mL, 18 h, 37 °C, at least triplicate
Protocol: as §1

S. aureus 001N (MRSA) = assay type: cell-based, Staphylococcus aureus; conditions: clinical strain, broth microdilution, 0.5 × 10^5 CFU/mL, 18 h, 37 °C, at least triplicate
Protocol: as §1

S. aureus 043SC (MRSA) = assay type: cell-based, Staphylococcus aureus; conditions: clinical strain, broth microdilution, 0.5 × 10^5 CFU/mL, 18 h, 37 °C, at least triplicate
Protocol: as §1

S. aureus ATCC 6538/P = assay type: cell-based, Staphylococcus aureus; conditions: reference strain, broth microdilution, 0.5 × 10^5 CFU/mL, 18 h, 37 °C, at least triplicate
Protocol: as §1

S. aureus K50S = assay type: cell-based, Staphylococcus aureus; conditions: clinical strain, broth microdilution, 0.5 × 10^5 CFU/mL, 18 h, 37 °C, at least triplicate
Protocol: as §1

S. aureus 060S = assay type: cell-based, Staphylococcus aureus; conditions: clinical strain, broth microdilution, 0.5 × 10^5 CFU/mL, 18 h, 37 °C, at least triplicate
Protocol: as §1

S. aureus 017N (MRSA) = assay type: cell-based, Staphylococcus aureus; conditions: clinical strain, broth microdilution, 0.5 × 10^5 CFU/mL, 18 h, 37 °C, at least triplicate
Protocol: as §1

S. aureus 002N = assay type: cell-based, Staphylococcus aureus; conditions: clinical strain, broth microdilution, 0.5 × 10^5 CFU/mL, 18 h, 37 °C, at least triplicate
Protocol: as §1

S. aureus ATCC 9144 = assay type: cell-based, Staphylococcus aureus; conditions: ATCC 9144, reference strain; broth microdilution, 0.5 × 10^5 CFU/mL, 18 h, 37 °C, at least triplicate
Protocol: as §1

S. aureus ATCC 25923 = assay type: cell-based, Staphylococcus aureus; conditions: ATCC 25923, reference strain; broth microdilution, 0.5 × 10^5 CFU/mL, 18 h, 37 °C, at least triplicate
Protocol: as §1

S. aureus 045N = assay type: cell-based, Staphylococcus aureus; conditions: clinical strain, broth microdilution, 0.5 × 10^5 CFU/mL, 18 h, 37 °C, at least triplicate
Protocol: as §1

S. aureus 001S (MRSA) = assay type: cell-based, Staphylococcus aureus; conditions: clinical strain, broth microdilution, 0.5 × 10^5 CFU/mL, 18 h, 37 °C, at least triplicate
Protocol: as §1

S. aureus 002S = assay type: cell-based, Staphylococcus aureus; conditions: clinical strain, broth microdilution, 0.5 × 10^5 CFU/mL, 18 h, 37 °C, at least triplicate
Protocol: as §1

S. aureus 005S = assay type: cell-based, Staphylococcus aureus; conditions: clinical strain, broth microdilution, 0.5 × 10^5 CFU/mL, 18 h, 37 °C, at least triplicate
Protocol: as §1

S. aureus 051S = assay type: cell-based, Staphylococcus aureus; conditions: clinical strain, broth microdilution, 0.5 × 10^5 CFU/mL, 18 h, 37 °C, at least triplicate
Protocol: as §1

S. aureus 013S = assay type: cell-based, Staphylococcus aureus; conditions: clinical strain, broth microdilution, 0.5 × 10^5 CFU/mL, 18 h, 37 °C, at least triplicate
Protocol: as §1

S. aureus 051N (MRSA) = assay type: cell-based, Staphylococcus aureus; conditions: clinical strain, broth microdilution, 0.5 × 10^5 CFU/mL, 18 h, 37 °C, at least triplicate
Protocol: as §1

S. aureus 053N = assay type: cell-based, Staphylococcus aureus; conditions: clinical strain, broth microdilution, 0.5 × 10^5 CFU/mL, 18 h, 37 °C, at least triplicate
Protocol: as §1

S. aureus 017S (MRSA) = assay type: cell-based, Staphylococcus aureus; conditions: clinical strain, broth microdilution, 0.5 × 10^5 CFU/mL, 18 h, 37 °C, at least triplicate
Protocol: as §1

S. aureus K46N = assay type: cell-based, Staphylococcus aureus; conditions: clinical strain, broth microdilution, 0.5 × 10^5 CFU/mL, 18 h, 37 °C, at least triplicate
Protocol: as §1

S. aureus 039N = assay type: cell-based, Staphylococcus aureus; conditions: clinical strain, broth microdilution, 0.5 × 10^5 CFU/mL, 18 h, 37 °C, at least triplicate
Protocol: as §1

S. aureus 048S = assay type: cell-based, Staphylococcus aureus; conditions: clinical strain, broth microdilution, 0.5 × 10^5 CFU/mL, 18 h, 37 °C, at least triplicate
Protocol: as §1

S. aureus 030N = assay type: cell-based, Staphylococcus aureus; conditions: clinical strain, broth microdilution, 0.5 × 10^5 CFU/mL, 18 h, 37 °C, at least triplicate
Protocol: as §1

S. aureus 033N = assay type: cell-based, Staphylococcus aureus; conditions: clinical strain, broth microdilution, 0.5 × 10^5 CFU/mL, 18 h, 37 °C, at least triplicate
Protocol: as §1

Substance | MIC range among strains [1] | Mean value of MIC [1] | Mean MIC values [1] | MIC (S. aureus ATCC 12598) | MIC (S. aureus 015N (MRSA)) | MIC (S. aureus ATCC 6538) | MIC (S. aureus 024N (MRSA)) | MIC (S. aureus 004N (MRSA)) | MIC (S. aureus K19N) | MIC (S. aureus 001N (MRSA)) | MIC (S. aureus 043SC (MRSA)) | MIC (S. aureus ATCC 6538/P) | MIC (S. aureus K50S) | MIC (S. aureus 060S) | MIC (S. aureus 017N (MRSA)) | MIC (S. aureus 002N) | MIC (S. aureus ATCC 9144) | MIC (S. aureus ATCC 25923) | MIC (S. aureus 045N) | MIC (S. aureus 001S (MRSA)) | other results
GIGKFLKKAKKFGKAFVKILKK-NH2 [Pexiganan] | 1 to 16 µg/mL |  |  |  |  |  |  |  |  |  |  |  |  |  |  |  |  |  |  |  | 
GLFDVIKKVASVIGGL-NH2 [Citropin 1.1 AcO^−] |  | 10.0 µg/mL | 10.0 µg/mL | 8 µg/mL | 8 µg/mL | 4 µg/mL | 2 µg/mL | 8 µg/mL | 16 µg/mL | 16 µg/mL | 8 µg/mL | 8 µg/mL | 1 µg/mL | 1 µg/mL | 4 µg/mL | 16 µg/mL | 16 µg/mL | 16 µg/mL | 16 µg/mL | 16 µg/mL | MIC (S. aureus 002S): 16 µg/mL; MIC (S. aureus 005S): 2 µg/mL; MIC (S. aureus 051S): 4 µg/mL; MIC (S. aureus 013S): 2 µg/mL; MIC (S. aureus 051N (MRSA)): 8 µg/mL; MIC (S. aureus 053N): 16 µg/mL; MIC (S. aureus 017S (MRSA)): 8 µg/mL; MIC (S. aureus K46N): 16 µg/mL; MIC (S. aureus 039N): 8 µg/mL; MIC (S. aureus 048S): 16 µg/mL; MIC (S. aureus 030N): 16 µg/mL; MIC (S. aureus 033N): 8 µg/mL
GLFDVIKKVASVIGGL-NH2 [Citropin 1.1 Cl^−] |  | 10.0 µg/mL | 10.0 µg/mL | 8 µg/mL | 8 µg/mL | 4 µg/mL | 2 µg/mL | 8 µg/mL | 16 µg/mL | 16 µg/mL | 8 µg/mL | 8 µg/mL | 1 µg/mL | 2 µg/mL | 4 µg/mL | 16 µg/mL | 16 µg/mL | 16 µg/mL | 16 µg/mL | 16 µg/mL | MIC (S. aureus 002S): 8 µg/mL; MIC (S. aureus 005S): 2 µg/mL; MIC (S. aureus 051S): 4 µg/mL; MIC (S. aureus 013S): 2 µg/mL; MIC (S. aureus 051N (MRSA)): 8 µg/mL; MIC (S. aureus 053N): 16 µg/mL; MIC (S. aureus 017S (MRSA)): 4 µg/mL; MIC (S. aureus K46N): 16 µg/mL; MIC (S. aureus 039N): 16 µg/mL; MIC (S. aureus 048S): 16 µg/mL; MIC (S. aureus 030N): 16 µg/mL; MIC (S. aureus 033N): 16 µg/mL
GLFDVIKKVASVIGGL-NH2 [Citropin 1.1 TFA^−] |  | 13.0 µg/mL | 13.0 µg/mL | 16 µg/mL | 16 µg/mL | 16 µg/mL | 2 µg/mL | 16 µg/mL | 16 µg/mL | 16 µg/mL | 8 µg/mL | 16 µg/mL | 2 µg/mL | 2 µg/mL | 8 µg/mL | 16 µg/mL | 32 µg/mL | 32 µg/mL | 16 µg/mL | 16 µg/mL | MIC (S. aureus 002S): 16 µg/mL; MIC (S. aureus 005S): 2 µg/mL; MIC (S. aureus 051S): 4 µg/mL; MIC (S. aureus 013S): 2 µg/mL; MIC (S. aureus 051N (MRSA)): 8 µg/mL; MIC (S. aureus 053N): 16 µg/mL; MIC (S. aureus 017S (MRSA)): 4 µg/mL; MIC (S. aureus K46N): 16 µg/mL; MIC (S. aureus 039N): 16 µg/mL; MIC (S. aureus 048S): 16 µg/mL; MIC (S. aureus 030N): 16 µg/mL; MIC (S. aureus 033N): 16 µg/mL
GLFDVIKKVASVIGGL-NH2 [Citropin 1.1] | 1 to 32 µg/mL |  |  |  |  |  |  |  |  |  |  |  |  |  |  |  |  |  |  |  | 
KWKLFKKIGAVLKVL-NH2 [CAMEL] | ≤ 0.25 to 8 µg/mL | below 3.5 µg/mL |  |  |  |  |  |  |  |  |  |  |  |  |  |  |  |  |  |  | 
